Data from patent US8664203B2, “Thiazole derivatives and their use as P2Y12 receptor antagonists” (Actelion Pharmaceuticals Ltd., priority 2009, dated 2014).

Target: T1, human P2Y12 receptor (Homo sapiens, UniProt Q9H244)
T1 construct: expressed in transfected cells; host or cells: CHO cells
Assay: P2Y12 receptor binding assay
Conditions: CHO cells with recombinant expression of the human P2Y12 receptor; tritium-labeled 2-methyl-S-ADP; RT, 2 hours
Procedure: P2Y12 Receptor Binding Assay
Chinese Hamster Ovary (CHO) cells with recombinant expression of the human P2Y12 receptor were cultured in 24 well cell-culture plates. Cells were washed three times with binding buffer (50 mM Tris pH 7.4, 100 mM NaCl, 1 mM EDTA, 0.5% BSA). The cells were then incubated with 0.5 ml per well binding buffer containing tritium-labeled 2-methyl-thio-adenosine 5′-diphosphate (2-methyl-S-ADP) (between 100′000 and 300′000 dpm per well) and various concentrations of test compounds. After incubation at RT for 2 hours, cells were washed three times with binding buffer. Then, cells were solubilized by addition of 0.5 ml solubilization buffer (SDS, NaOH, EDTA). The content of each well was then transferred into beta-counter vials and 2.0 ml of Ultima Gold Scintillation liquid was added.

T1 sequence (Q9H244 whole entry): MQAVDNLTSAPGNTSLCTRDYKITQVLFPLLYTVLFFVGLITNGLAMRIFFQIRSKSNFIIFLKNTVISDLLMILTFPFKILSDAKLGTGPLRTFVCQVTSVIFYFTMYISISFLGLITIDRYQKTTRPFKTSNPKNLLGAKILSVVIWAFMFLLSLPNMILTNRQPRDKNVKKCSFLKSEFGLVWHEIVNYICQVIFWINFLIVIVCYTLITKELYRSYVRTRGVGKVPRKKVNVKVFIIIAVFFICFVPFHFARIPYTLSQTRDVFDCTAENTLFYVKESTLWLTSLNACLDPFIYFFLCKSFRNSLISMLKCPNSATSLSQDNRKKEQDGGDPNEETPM

| SMILES | IC50 |
| --- | --- |
| CCCCOC(=O)N1CCN(C(=O)[C@H](CP(=O)(OCOC(=O)OCC)OCOC(=O)OCC)NC(=O)c2csc(-c3ccccc3)n2)CC1 [Example 59, 4-{(R)-3-[Bis-(ethoxycarbonyloxymethoxy)-phosphoryl]-2-[(2-phenyl-thiazole-4-carbonyl)-amino]-propionyl}-piperazine-1-carboxylic acid butyl ester] | 15 nM |
| CCCCCCN(C)c1sc(C(=O)NCC(=O)N2CCN(C(=O)OCCCC)CC2)nc1-c1ccccc1 [Example 60, 4-(2-{[5-(Hexyl-methyl-amino)-4-phenyl-thiazole-2-carbonyl]-amino}-acetyl)-piperazine-1-carboxylic acid butyl ester] | 1560 nM |
| CCCCOC(=O)N1CCN(C(=O)CNC(=O)c2nc(-c3ccccc3)sc2NCCC(=O)O)CC1 [Example 61, 4-(2-{[5-(2-Carboxy-ethylamino)-2-phenyl-thiazole-4-carbonyl]-amino}-acetyl)-piperazine-1-carboxylic acid butyl ester] | 71 nM |
| CCCCOC(=O)N1CCN(C(=O)CNC(=O)c2nc(-c3ccccc3)sc2NCCC(=O)OCC)CC1 [Example 62, 4-(2-{[5-(2-Ethoxycarbonyl-ethylamino)-2-phenyl-thiazole-4-carbonyl]-amino}-acetyl)-piperazine-1-carboxylic acid butyl ester] | 134 nM |
